Experiments:
Assay type in all cases: physicochemical
[1] = Form IV slurry experiments in aqueous organic solvents with heat-cool cycles, solids analyzed by XRPD; conditions: 20 to 50° C. heat-cool cycles
Method: Zongertinib form IV (e.g. prepared according to any one of the procedures of reference example 1.3) was slurried in different aqueous organic solvent systems (12V, composition according to table 1) at a temperature ranging from 20 to 50° C. using a magnetic stir bar. Heat-cool-cycles were conducted using automation available on the Junior robot and as per the below program: • 1. Set stirring to 350 rpm (by means of magnetic stir bars) • 2. Heat to 50° C. (10° C./minute) • 3. Hold at 50° C. for 150 minutes • 4. Cool to 20° C. (−1° C./minute) • 5. Hold at 20° C. for 120 minutes • 6. Heat to 50° C. (5° C./minute) • 7. Hold at 50° C. for 120 minutes • 8. Cool to 20° C. (−1° C./minute) • 9. Set stirring to 0 rpm • 10. Hold at 20° C. for 16 hrs
The solids were collected and analyzed by XRPD.
XRPD was performed with a Bruker D8 Discover X-ray diffractometer. The instrument detector allows for two-dimensional diffractograms to be acquired. Solid samples were placed on a zero-background diffraction plate. The results were processed using DIFFRAC.EVA software. The diffraction pattern was integrated from two-dimensional to one-dimensional. The Kα2 contribution was stripped, no smoothing or background correction was performed. A typical precision of the 2-Theta values is in the range of ±0.2° 2-Theta, preferably in the range of ±0.1° 2-Theta. Thus, a reflection that usually appears at 7.0 2-Theta for example can appear between 6.8° and 7.2° 2-Theta, preferably between 6.9° and 7.1° 2-Theta on most X-ray diffractometers under standard conditions.

[2] = Suspension of form IV and form III stirred at 35° C. for 18 hrs, solid analyzed by XRPD; conditions: mixture of form IV and form III
Method: A suspension of zongertinib form IV (e.g. prepared according to any one of the procedures of reference example 1.3) and zongertinib form III (e.g. prepared according to reference example 1.2) in 20V of 1:1 (vol:vol) IPAc/water was stirred using overhead agitation at 35° C. for 18 hrs. The solid was collected and analyzed by XRPD confirming receipt of form XX.
A suspension of zongertinib form IV (e.g. prepared according to any one of the procedures of reference example 1.3) and zongertinib form III (e.g. prepared according to reference example 1.2) in 20V of water was stirred using overhead agitation at 35° C. for 18 hrs. The solid was collected and analyzed by XRPD confirming receipt of form XX.
XRPD was performed with a Bruker D8 Discover X-ray diffractometer. The instrument detector allows for two-dimensional diffractograms to be acquired. Solid samples were placed on a zero-background diffraction plate. The results were processed using DIFFRAC.EVA software. The diffraction pattern was integrated from two-dimensional to one-dimensional. The Kα2 contribution was stripped, no smoothing or background correction was performed. A typical precision of the 2-Theta values is in the range of ±0.2° 2-Theta, preferably in the range of ±0.1° 2-Theta. […]

[3] = Polarized light microscopy (PLM), crystal habit
Text: Crystal habits of zongertinib forms XXIV, XIX and XX have been elucidated using polarized light microscopy. Depending on the starting material, form XVIII can be obtained in different crystal shapes.

[4] = Thermal gravimetric analysis (TGA); conditions: ambient to 600° C., heating rate 20° C./min
Method: TGA was performed with a TA Instruments TGA 550. Samples (5 mg) were heated in aluminium pans with a sealed aluminium lid from ambient temperature to 600° C. at a heating rate of 20° C./min. Processing was completed using TRIOS software.

[5] = Excessive drying of form XXIV and/or form XIX; conditions: typically temperatures >50° C. under vacuum
Method: Form XVIII is formed upon excessive drying of form XXIV and/or form XIX (e.g. prepared according to any one of examples 1.1 to 1.4 herein). Typically, drying is performed at temperatures >50° C. under vacuum.

C=CC(=O)NC1CCN(c2ncc3ncnc(Nc4ccc(Oc5ccc6c(c5)ncn6C)c(C)c4)c3n2)CC1 [Form IV, zongertinib]
XRPD results after slurry ([1]; 12V 1:1 (vol:vol) ACN:water): Form XIX | XRPD results after slurry ([1]; 12V 1:1 (vol:vol) EtOH:water): Form XIX | XRPD results after slurry ([1]; 12V 1:1 (vol:vol) IPAc:water): Form XXIV | XRPD results after slurry ([1]; 12V 2:1 (vol:vol) THF:water): Form XXIV | Solid form by XRPD after stirring suspension ([2]; 20V of 1:1 (vol:vol) IPAc/water): form XX | Solid form by XRPD after stirring suspension ([2]; 20V of water): form XX

C=CC(=O)NC1CCN(c2ncc3ncnc(Nc4ccc(Oc5ccc6c(c5)ncn6C)c(C)c4)c3n2)CC1 [Form XIX, zongertinib]
Crystal Habit ([3]; listed as XIX): lath-shaped crystals | TGA sample decomposition start temperature ([4]; listed as form XIX): about 327 °C

C=CC(=O)NC1CCN(c2ncc3ncnc(Nc4ccc(Oc5ccc6c(c5)ncn6C)c(C)c4)c3n2)CC1 [Form XVIII, zongertinib]
Crystal Habit ([3]; listed as XVIII (drying of XIX)): lath-shaped crystals | Crystal Habit ([3]; listed as XVIII (drying of XXIV)): plate-shaped and lath shaped crystals | TGA sample decomposition start temperature ([4]; listed as form XVIII): about 394 °C

C=CC(=O)NC1CCN(c2ncc3ncnc(Nc4ccc(Oc5ccc6c(c5)ncn6C)c(C)c4)c3n2)CC1 [Form XX, zongertinib]
Crystal Habit ([3]; listed as XX): needle-shaped crystals | TGA sample decomposition start temperature ([4]; listed as form XX): about 393 °C

C=CC(=O)NC1CCN(c2ncc3ncnc(Nc4ccc(Oc5ccc6c(c5)ncn6C)c(C)c4)c3n2)CC1 [Form XXIV, zongertinib]
Crystal Habit ([3]; listed as XXIV): plate-shaped and lath shaped crystals | TGA sample decomposition start temperature ([4]; listed as form XXIV): about 415 °C | Form obtained upon excessive drying [5]: Form XVIII

Source: US20250376476A1, “Crystalline forms of a HER2 tyrosine kinase inhibitor” (Boehringer Ingelheim International GmbH, priority 2024, published 2025)
